Patent US10385065B2, “Antibacterial compounds” (priority 2014, dated 2019)
In brackets after ≈: the same amount, converted by molar mass. Read-outs that look alike come from different tables or passages of the source.

Columns and labels:
Type in all cases: cell-based
[1] = tested on: Escherichia coli ATCC 25922; experiment: MIC, broth microdilution, E. coli ATCC 25922; conditions: ATCC25922, Table 1, wild type strain
[2] = tested on: Enterococcus faecium ATCC 19434; experiment: MIC, E. faecium ATCC 19434; conditions: ATCC19434, Table 2
[3] = tested on: Haemophilus influenzae ATCC 49247; experiment: MIC, H. influenzae ATCC 49247; conditions: ATCC49247, Table 4
[4] = tested on: Staphylococcus aureus ATCC 29213; experiment: MIC, broth microdilution, S. aureus ATCC 29213
[5] = ATCC29213, Table 1, wild type strain, read-out: MIC S. aureus ATCC 29213
[6] = ATCC 29213 / MSSA, Table 2, read-out: MIC S. aureus (MSSA) ATCC 29213 CLSI control strain

Cc1c(-c2cc(F)c(N)cc2F)ccc2c3oc(=O)[nH]c3c(=O)n(C3CC3)c12 [Compound 3, 7-(4-amino-2,5-difluoro-phenyl)-5-cyclopropyl-6-methyl-3H-oxazolo[4,5-c]quinoline-2,4-dione] was tested, and the MIC [1] was > 100 µg/mL, the MIC [2] was > 100 µg/mL and the MIC [3] was 1 to 10 µg/mL (≈ 2.61 to 26.1 µM). For the same compound, the MIC [4, 5] was 1 to 10 µg/mL (≈ 2.61 to 26.1 µM) and the MIC [4, 6] was 1 to 10 µg/mL (≈ 2.61 to 26.1 µM).

For Cc1c(-c2cnc(N)cn2)ccc2c3ocnc3c(=O)n(C3CC3)c12 [Compound 6, 7-(5-aminopyrazin-2-yl)-5-cyclopropyl-6-methyl-oxazolo[4,5-c]quinolin-4-one], the MIC [1] was > 100 µg/mL, the MIC [2] was > 100 µg/mL and the MIC [3] was > 100 µg/mL. It also gave an MIC [4, 5] of 10 to 100 µg/mL (≈ 30 to 300 µM) and an MIC [4, 6] of 10 to 100 µg/mL (≈ 30 to 300 µM).

Cc1c(-c2ccccc2)ccc2c3ocnc3c(=O)n(C3CC3)c12 [Compound 7, 5-cyclopropyl-6-methyl-7-phenyl-oxazolo[4,5-c]quinolin-4-one] was tested, and the MIC [1] was > 100 µg/mL, the MIC [2] was 10 to 100 µg/mL (≈ 31.6 to 316 µM) and the MIC [3] was 10 to 100 µg/mL (≈ 31.6 to 316 µM). For the same compound, the MIC [4, 5] was 1 to 10 µg/mL (≈ 3.16 to 31.6 µM) and the MIC [4, 6] was 1 to 10 µg/mL (≈ 3.16 to 31.6 µM).

For Cc1nc2c(=O)n(C3CC3)c3c(C)c(-c4cnn(C5CNC5)c4)ccc3c2o1 [Compound 12, 7-[1-(azetidin-3-yl)pyrazol-4-yl]-5-cyclopropyl-2,6-dimethyl-oxazolo[4,5-c]quinolin-4-one], the MIC [1] was 10 to 100 µg/mL (≈ 26.6 to 266 µM), the MIC [2] was > 100 µg/mL and the MIC [3] was 1 to 10 µg/mL (≈ 2.66 to 26.6 µM). For the same compound, the MIC [4, 5] was 1 to 10 µg/mL (≈ 2.66 to 26.6 µM) and the MIC [4, 6] was > 100 µg/mL.

For Cc1nc2c(=O)n(C3CC3)c3c(C)c(-c4ccc(N)c(F)c4)ccc3c2o1 [Compound 13], the MIC [1] was > 100 µg/mL, the MIC [2] was > 100 µg/mL and the MIC [3] was > 100 µg/mL. For the same compound, the MIC [4, 5] was < 1 µg/mL and the MIC [4, 6] was < 1 µg/mL.

Cc1nc2c(=O)n(C3CC3)c3c(C)c(-c4cnc(N)nc4)ccc3c2o1 [Compound 16, 7-(2-aminopyrimidin-5-yl)-5-cyclopropyl-2,6-dimethyl-oxazolo[4,5-c]quinolin-4-one] showed an MIC [1] of 10 to 100 µg/mL (≈ 28.8 to 288 µM), an MIC [2] of 10 to 100 µg/mL (≈ 28.8 to 288 µM) and an MIC [3] of 10 to 100 µg/mL (≈ 28.8 to 288 µM). For the same compound, the MIC [4, 5] was < 1 µg/mL and the MIC [4, 6] was 1 to 10 µg/mL (≈ 2.88 to 28.8 µM).

In the case of Cc1nc2c(=O)n(C3CC3)c3c(C)c(-c4ccc(S(N)(=O)=O)cc4)ccc3c2o1 [Compound 17], the MIC [1] was 1 to 10 µg/mL (≈ 2.44 to 24.4 µM), the MIC [2] was > 100 µg/mL and the MIC [3] was < 1 µg/mL. The MIC [4, 5] was 1 to 10 µg/mL (≈ 2.44 to 24.4 µM) and the MIC [4, 6] was 1 to 10 µg/mL (≈ 2.44 to 24.4 µM).

Work on Cc1nc2c(=O)n(C3CC3)c3c(C)c(-c4cc(F)c(O)cc4F)ccc3c2o1 [Compound 32, 5-cyclopropyl-7-(2,5-difluoro-4-hydroxy-phenyl)-2,6-dimethyl-oxazolo[4,5-c]quinolin-4-one] yielded an MIC [1] of 1 to 10 µg/mL (≈ 2.62 to 26.2 µM), an MIC [2] of 10 to 100 µg/mL (≈ 26.2 to 262 µM) and an MIC [3] of 1 to 10 µg/mL (≈ 2.62 to 26.2 µM). The MIC [4, 5] was < 1 µg/mL and the MIC [4, 6] was < 1 µg/mL.

For Cc1nc2c(=O)n(C3CC3)c3c(C)c(-c4cnc(C(C)(C)O)nc4)ccc3c2o1 [Compound 37, 5-cyclopropyl-7-[2-(2-hydroxypropan-2-yl)pyrimidin-5-yl]-2,6-dimethyl-oxazolo[4,5-c]quinolin-4-one], the MIC [1] was > 100 µg/mL, the MIC [2] was > 100 µg/mL and the MIC [3] was 10 to 100 µg/mL (≈ 25.6 to 256 µM). The MIC [4, 5] was 10 to 100 µg/mL (≈ 25.6 to 256 µM) and the MIC [4, 6] was 10 to 100 µg/mL (≈ 25.6 to 256 µM).

With CC(=O)c1ccc(-c2ccc3c4ocnc4c(=O)n(C4CC4)c3c2C)nc1 [Compound 42, 7-(5-acetylpyridin-2-yl)-5-cyclopropyl-6-methyl-oxazolo[4,5-c]quinolin-4-one] the MIC [1] was > 100 µg/mL, the MIC [2] was > 100 µg/mL and the MIC [3] was > 100 µg/mL. The MIC [4, 5] was 10 to 100 µg/mL (≈ 27.8 to 278 µM) and the MIC [4, 6] was 10 to 100 µg/mL (≈ 27.8 to 278 µM).

With Cc1c(-c2cnoc2)ccc2c3ocnc3c(=O)n(C3CC3)c12 [Compound 43, 5-cyclopropyl-6-methyl-7-(1,2-oxazol-4-yl)-oxazolo[4,5-c]quinolin-4-one] the MIC [1] was 10 to 100 µg/mL (≈ 32.5 to 325 µM), the MIC [2] was > 100 µg/mL and the MIC [3] was 10 to 100 µg/mL (≈ 32.5 to 325 µM). The MIC [4, 5] was 1 to 10 µg/mL (≈ 3.25 to 32.5 µM) and the MIC [4, 6] was 1 to 10 µg/mL (≈ 3.25 to 32.5 µM).

For Cc1c(-c2ccc3[nH]nnc3c2)ccc2c3ocnc3c(=O)n(C3CC3)c12 [Compound 44, 7-(1H-1,2,3-benzotriazol-5-yl)-5-cyclopropyl-6-methyl-oxazolo[4,5-c]quinolin-4-one], the MIC [1] was > 100 µg/mL, the MIC [2] was > 100 µg/mL and the MIC [3] was > 100 µg/mL. For the same compound, the MIC [4, 5] was > 100 µg/mL and the MIC [4, 6] was > 100 µg/mL.

With Cc1c(-c2ccc(O)cn2)ccc2c3ocnc3c(=O)n(C3CC3)c12 [Compound 45, 5-cyclopropyl-7-(5-hydroxypyridin-2-yl)-6-methyl-oxazolo[4,5-c]quinolin-4-one] the MIC [1] was > 100 µg/mL, the MIC [2] was > 100 µg/mL and the MIC [3] was 10 to 100 µg/mL (≈ 30 to 300 µM). The MIC [4, 5] was 10 to 100 µg/mL (≈ 30 to 300 µM) and the MIC [4, 6] was 10 to 100 µg/mL (≈ 30 to 300 µM).

With Cc1c(-c2cc(F)c(C(=O)O)cc2F)ccc2c3ocnc3c(=O)n(C3CC3)c12 [Compound 47, 4-{5-cyclopropyl-6-methyl-4-oxo-oxazolo[4,5-c]quinolin-7-yl}-2,5-difluorobenzoic acid] the MIC [1] was > 100 µg/mL, the MIC [2] was > 100 µg/mL and the MIC [3] was > 100 µg/mL. It also gave an MIC [4, 5] of 10 to 100 µg/mL (≈ 25.2 to 252 µM) and an MIC [4, 6] of 10 to 100 µg/mL (≈ 25.2 to 252 µM).

In the case of Cc1nc2c(=O)n(C3CC3)c3cc(N4CCCC(N)C4)c(F)cc3c2o1 (centres unmarked) [Compound 51, 7-(3-aminopiperidin-1-yl)-5-cyclopropyl-8-fluoro-2-methyl-oxazolo[4,5-c]quinolin-4-one], the MIC [1] was 1 to 10 µg/mL (≈ 2.81 to 28.1 µM), the MIC [2] was 10 to 100 µg/mL (≈ 28.1 to 281 µM) and the MIC [3] was 1 to 10 µg/mL (≈ 2.81 to 28.1 µM). It also gave an MIC [4, 5] of 1 to 10 µg/mL (≈ 2.81 to 28.1 µM) and an MIC [4, 6] of 1 to 10 µg/mL (≈ 2.81 to 28.1 µM).

With Cc1nc2c(=O)n(C3CC3)c3cc(N4CCC(O)C4)c(F)cc3c2o1 (centres unmarked) [Compound 53, 5-cyclopropyl-8-fluoro-7-(3-hydroxypyrrolidin-1-yl)-2-methyl-oxazolo[4,5-c]quinolin-4-one] the MIC [1] was 10 to 100 µg/mL (≈ 29.1 to 291 µM), the MIC [2] was > 100 µg/mL and the MIC [3] was 1 to 10 µg/mL (≈ 2.91 to 29.1 µM). It also gave an MIC [4, 5] of 10 to 100 µg/mL (≈ 29.1 to 291 µM) and an MIC [4, 6] of 10 to 100 µg/mL (≈ 29.1 to 291 µM).

In the case of O=c1c2ncoc2c2cc(F)c(-c3ccncc3Cl)cc2n1C1CC1 [Compound 59, 7-(3-chloro-4-pyridyl)-5-cyclopropyl-8-fluoro-oxazolo[4,5-c]quinolin-4-one], the MIC [1] was 10 to 100 µg/mL (≈ 28.1 to 281 µM), the MIC [2] was > 100 µg/mL and the MIC [3] was 1 to 10 µg/mL (≈ 2.81 to 28.1 µM). For the same compound, the MIC [4, 5] was 1 to 10 µg/mL (≈ 2.81 to 28.1 µM) and the MIC [4, 6] was 1 to 10 µg/mL (≈ 2.81 to 28.1 µM).

With O=c1c2ncoc2c2cc(F)c(-c3ccc(C(F)(F)F)nc3)cc2n1C1CC1 [Compound 60, 5-cyclopropyl-8-fluoro-7-[6-(trifluoromethyl)-3-pyridyl]oxazolo[4,5-c]quinolin-4-one] the MIC [1] was > 100 µg/mL, the MIC [2] was > 100 µg/mL and the MIC [3] was 1 to 10 µg/mL (≈ 2.57 to 25.7 µM). For the same compound, the MIC [4, 5] was 10 to 100 µg/mL (≈ 25.7 to 257 µM) and the MIC [4, 6] was 10 to 100 µg/mL (≈ 25.7 to 257 µM).

In the case of CCOC(=O)c1ccc(-c2cc3c(cc2F)c2ocnc2c(=O)n3C2CC2)cc1 [Compound 61, ethyl 4-(5-cyclopropyl-8-fluoro-4-oxo-oxazolo[4,5-c]quinolin-7-yl)benzoate], the MIC [1] was > 100 µg/mL, the MIC [2] was > 100 µg/mL and the MIC [3] was > 100 µg/mL. For the same compound, the MIC [4, 5] was > 100 µg/mL and the MIC [4, 6] was > 100 µg/mL.

With Nc1ncc(-c2cc3c(cc2F)c2ocnc2c(=O)n3C2CC2)cn1 [Compound 62, 7-(2-aminopyrimidin-5-yl)-5-cyclopropyl-8-fluoro-oxazolo[4,5-c]quinolin-4-one] the MIC [1] was 10 to 100 µg/mL (≈ 29.6 to 296 µM), the MIC [2] was > 100 µg/mL and the MIC [3] was 1 to 10 µg/mL (≈ 2.96 to 29.6 µM). For the same compound, the MIC [4, 5] was 1 to 10 µg/mL (≈ 2.96 to 29.6 µM) and the MIC [4, 6] was 1 to 10 µg/mL (≈ 2.96 to 29.6 µM).

COc1ccc(-c2cc3c(cc2F)c2ocnc2c(=O)n3C2CC2)cc1 [Compound 63, 5-cyclopropyl-8-fluoro-7-(4-methoxyphenyl)oxazolo[4,5-c]quinolin-4-one] was tested, and the MIC [1] was > 100 µg/mL, the MIC [2] was > 100 µg/mL and the MIC [3] was > 100 µg/mL. For the same compound, the MIC [4, 5] was > 100 µg/mL and the MIC [4, 6] was > 100 µg/mL.

With Cc1nc2c(=O)n(C3CC3)c3c(Cl)c(N4CCC(CN)C4)c(F)cc3c2o1 (centres unmarked) [Compound 110, 7-[3-(aminomethyl)pyrrolidin-1-yl]-6-chloro-5-cyclopropyl-8-fluoro-2-methyl-oxazolo[4,5-c]quinolin-4-one] the MIC [1] was < 1 µg/mL and the MIC [4, 5] was < 1 µg/mL.
